Assays:
Type in all cases: cell-based
[1] = tested on: endogenously inflamed ex vivo human skin sample; assay: Inhibitors of endogenous inflammation: IL-8/IL-6 secretion by ex vivo skin samples; settings: for IL-8 secretion: endogenously inflamed skin sample, without inhibitor about 2,600 pg/ml; for IL-8 secretion / IL-8 expression (secretion): day 3; for IL-8 expression: not induced, untreated 1045 pg/ml; for inhibition of endogenous inflammation, conclusion in words: IL-8 as marker; for fold-regulation in secretion (expression) of IL-6 / fold-regulation in secretion (expression) of IL-8: endogenously inflamed skin; for IL-8 expression (secretion): untreated (endogenous) skin sample
Text: (§1) This Example describes the materials and methods used in preparing ex vivo skin samples for use according to the methods disclosed herein. Materials used in preparation of ex vivo skin samples for use in the disclosed screening methods included: Dulbecco's Modified Eagle Medium (DMEM) plus Glutamax, antibiotic and antimycotics, 1× phosphate-buffered saline (PBS), 150×15 mm sterile culture dishes, sterile gauze 4×4, disposable safety scalpels, 4 mm disposable biopsy punch, 6-well cell-culture inserts, disinfected tweezers, cotton-tipped applicators, 6-well culture plates, ruled, disinfected cutting mat (12×12), scraper handle, tissue freezing medium, biopsy cassettes, frozen-tissue freezing vessels, 10% formalin, shipping containers for fixed tissue, and biohazard/sharps containers. Media was prepared in advance of the arrival of ex vivo skin. The skin arrived with the dermis (fat) side down on sterile DMEM soaked gauze in a sterile culture dish. The culture dish was taped shut and in a biohazard zip-lock baggie on an ice pack in a secondary container.
(§2) On arrival, the skin was removed from the bag and soaked in 3×DMEM media (3× refers to concentration of antibiotic and antimycotics) and stored at 4° C. for 1 hour. After 1 hour, the skin was removed from the 3×DMEM and rinsed with sterile 1×PBS. The skin was placed in a clean culture dish containing gauze soaked with 1×DMEM. The sample was put in culture the same day as arrival. If necessary, however, the ex vivo skin samples can be stored at 4° C. overnight.
(§3) In preparation for culture, the following was performed: on a cutting mat, the skin was flipped over so that the epidermis was down and the subcutis (fat) was exposed. The fat was removed with a disposable scalpel by carefully grasping one corner of the skin with sterile serrated forceps and scraping the fat away with the blade held at a 45° angle to the skin. After the fat was removed, the surgical edges were cut off with a scalpel using a scraper as a straight edge guide and to hold the skin in place. Using the scraper as a guide, the skin was cut into 1.25 cm (2×2 squares on grid) wide strips using a ruler to measure the width. The strip was rinsed in a 100 mm culture dish containing 1×PBS. The strips were cut into 1.25 cm^2 squares and placed in a 100 mm culture dish on 1×DMEM-soaked gauze until they were put into culture 30 minutes later.
(§4) Culture plates were prepared that included 2.5 ml of media or media with treatment (e.g., a candidate modulator, an inflammation inducer, and/or an inhibitor of inflammation) in each well of a 6-well plate. One Millicell culture insert was added to each well and 100 μl of 1× DMEM was put in the center of each insert membrane. Squares of skin tissue were selected randomly and placed into each of the inserts (one piece of skin per insert), on top of the media on the membrane. The plates were stored at 33° C., with fresh media changes daily. As a control, baseline tissue measurements were collected from excess waste (cryogenics were used for snap-freezing). Baseline biopsy collection included two 4 mm punches for an MTT colorimetric assay (described below); one 4 mm punch was snap-frozen in OCT tissue compound for fresh histology; one 4 mm punch was fixed in 10% formalin and sent out for paraffin embedding. Expression measurements of inflammation marker genes were performed using PCR and primers appropriate to the known sequence of the gene(s) of interest.
(§5) Culturing and treatment of the ex vivo skin model comprised replicates of n=5. Before experimental treatment, compounds (e.g., a candidate modulator, an inflammation inducer, or a suppressor of inflammation) were solubilized in appropriate solvents (including PBS, media, alcohol, and DMSO). Appropriate dilutions were made for treatment and 15 ml of media was used per plate per day for treatment, with 2.5 ml of media per well under the cell culture insert. Media was pre-warmed and changed every day during the experiment.

[2] = tested on: induced inflamed ex vivo human skin sample (IL-17 + IL-22); assay: Inhibitors of IL-17/IL-22-induced inflammation: IL-8 secretion by ex vivo skin samples; settings: for IL-8 expression: induced by IL-17 (200 ng/ml)/IL-22 (20 ng/ml), day 4, induced alone 1798 pg/ml; for inhibition of IL-17/IL-22 induced inflammation, conclusion in words: IL-8 as marker; for IL-8 expression (secretion): IL-17/IL-22-induced inflammation, day 3, induced alone about 3,800 pg/ml
[3] = tested on: endogenously inflamed ex vivo human skin sample; assay: Inhibitors of endogenous inflammation: inflammation marker gene expression in ex vivo skin samples; settings: 10 μM clobetasol
Text: as §1, §2, §3, §4
as §5, with “experiment. […]” for “experiment.”

[4] = tested on: induced inflamed ex vivo human skin sample (IL-17 + IL-22); assay: Inhibitors of IL-17/IL-22-induced inflammation: inflammation marker gene expression in ex vivo skin samples
Text: as §1, §2, §3, §4
as §5, with “experiment. […]” for “experiment.”

[5] = tested on: ex vivo human skin sample; assay: Inducers of inflammation: inflammation marker secreted into the media by ex vivo skin samples (ELISA); settings: IL-1β 10 ng/ml on first four days of eight-day experiment
Text: as §1, §2
In preparation for culture, the following was performed: on a cutting mat, the skin was flipped over so that the epidermis was down and the subcutis (fat) was exposed. The fat was removed with a disposable scalpel by carefully grasping one corner of the skin with sterile serrated forceps and scraping the fat away with the blade held at a 45° angle to the skin. After the fat was removed, the surgical edges were cut off with a scalpel using a scraper as a straight edge guide and to hold the skin in place. […]

[6] = tested on: ex vivo human skin sample; assay: Inducers of inflammation: inflammation marker gene expression in ex vivo skin samples (PCR)
Text: as §1, §2, §3, §4, §5

[7] = endogenously inflamed, 0.6 nM betamethasone, 0.08 μM hydrocortisone, 30 μM ketoprofen, 35 μM arlatone

Compound: c1cnc2c(c1)ccc1cccnc12 [1,10-phenanthroline]
- IL-8 secretion ([1]; topical 1.2 μg/ml 1,10-phenanthroline): about 900 pg/ml

Compound: O=c1cc(-c2ccc(O)cc2)oc2cc(O)cc(O)c12 [apigenin]
- IL-8 expression ([1]; 25 μM apigenin, day 4): 106 pg/mL
- inhibition of endogenous inflammation, conclusion in words [1]: functions effectively in inhibiting endogenous inflammation
- IL-8 expression ([2]; 25 μM apigenin): 1276 pg/mL
- inhibition of IL-17/IL-22 induced inflammation, conclusion in words [2]: does not appear to function effectively to inhibit induced inflammation

Compound: C[C@H]1C[C@H]2[C@@H]3CCC4=CC(=O)C=C[C@]4(C)[C@@]3(F)[C@@H](O)C[C@]2(C)[C@@]1(O)C(=O)CCl [clobetasol]
- fold-regulation in secretion (expression) of IL-6 ([1]; 10 μM clobetasol, donor 1 of 5): −3.28 fold
- fold-regulation in secretion (expression) of IL-8 ([1]; 10 μM clobetasol, donor 1 of 5): −2.72 fold
- fold-regulation in secretion (expression) of IL-6 ([1]; 10 μM clobetasol, donor 2 of 5): −3.55 fold
- fold-regulation in secretion (expression) of IL-8 ([1]; 10 μM clobetasol, donor 2 of 5): −2.72 fold
- fold-regulation in secretion (expression) of IL-6 ([1]; 10 μM clobetasol, donor 3 of 5): −8.69 fold
- fold-regulation in secretion (expression) of IL-8 ([1]; 10 μM clobetasol, donor 3 of 5): −3.68 fold
- fold-regulation in secretion (expression) of IL-6 ([1]; 10 μM clobetasol, donor 4 of 5): −5.70 fold
- fold-regulation in secretion (expression) of IL-8 ([1]; 10 μM clobetasol, donor 4 of 5): −3.89 fold
- fold-regulation in secretion (expression) of IL-6 ([1]; 10 μM clobetasol, donor 5 of 5): −2.20 fold
- fold-regulation in secretion (expression) of IL-8 ([1]; 10 μM clobetasol, donor 5 of 5): −1.76 fold
- IL-8 expression ([1]; 10 μM clobetasol, day 4): 50 pg/mL
- IL-8 secreted into the media ([1]; 10 μM clobetasol, otherwise untreated sample, day 4, untreated about 5,800, 0.01% DMSO about 8,000 pg/ml): about 400 pg/ml
- inhibition of endogenous inflammation, conclusion in words [1]: functions effectively as an inhibitor of both endogenous and induced inflammation
- IL-8 secretion ([1]; topical 10 μM clobetasol): about 300 pg/ml
- IL-8 expression (secretion) ([1]; topical clobetasol 1 μg/cm^2 skin surface, reduction from about 1,200 pg/ml): about 200 pg/ml
- IL-8 expression (secretion) ([2]; 1 pg/cm^2 topical clobetasol): about 1,100 pg/cm^2
- IL-8 secreted into the media ([2]; 10 μM clobetasol with 200 ng/ml IL-17 and 20 ng/ml IL-22, day 4, induced without inhibitor about 13,600 pg/ml): about 4,400 pg/ml
- IL-8 expression ([2]; 10 μM clobetasol): 65 pg/mL
- inhibition of IL-17/IL-22 induced inflammation, conclusion in words [2]: functions effectively as an inhibitor of both endogenous and induced inflammation
- gene expression of key inflammatory markers (nine marker genes, FIG. 8), in words ([3]; endogenous inflammation): appropriately inhibits gene expression of key inflammatory markers
- S100A7 expression, in words [3, 7]: inhibited S100A7 expression
- rank ordering of inflammation inhibitors based on IL-8 and IL-6 inhibition levels [3, 7]: most effective inhibitor
- reduction in the three markers (IL-6, IL-8, and TNFa), rank ordering of efficacy in words (FIG. 15) [3, 7]: shows the greatest reduction
- gene expression of IL-8, IL-6, S100A7 and DEFB4, in words ([3]; topical, day 3 (72 hours), 1.2 μg/ml 1,10-phenanthroline, endogenous inflammation): inhibited expression of IL-8, IL-6 and S100A7
- IL-6 expression relative to control values ([4]; 10 μM clobetasol with IL-17 (200 ng/ml) and IL-22 (20 ng/ml), induced alone about 6-fold): about 0.3 fold
- IL-8 expression relative to the untreated control ([4]; 10 μM clobetasol with IL-17 (200 ng/ml) and IL-22 (20 ng/ml), induced alone about 16-fold): about 3 fold
- S100A7 expression relative to the untreated control ([4]; 10 μM clobetasol with IL-17 (200 ng/ml) and IL-22 (20 ng/ml), induced alone about 34-fold): about 26 fold
- DEFB4 expression relative to controls ([4]; 10 μM clobetasol with IL-17 (200 ng/ml) and IL-22 (20 ng/ml), induced alone about 800-fold): about 200 fold
- gene expression of key inflammatory markers (nine marker genes, FIG. 8), in words ([4]; 10 μM clobetasol, IL-17 (200 ng/ml) + IL-22 (20 ng/ml) driven inflammation): appropriately inhibits gene expression of key inflammatory markers
- IL-6 expression level in the presence of the inducers and clobetasol, in words ([4]; 10 μM clobetasol, IL-17 (200 ng/ml) and IL-22 (20 ng/ml)): lower than the IL-6 expression level in untreated skin cells
- expression levels of IL-8, IL-6, S100A7 and DEFB4, in words ([4]; 10 μM clobetasol, inflammation induced by IL-17 (200 ng/ml) and IL-22 (20 ng/ml)): significantly reduced expression levels

Compound: C[C@]12CCC(=O)C=C1CC[C@@H]1[C@@H]2[C@@H](O)C[C@@]2(C)[C@H]1CC[C@]2(O)C(=O)CO [hydrocortisone]
- rank ordering of inflammation inhibitors based on IL-8 and IL-6 inhibition levels [3, 7]: followed by betamethasone, hydrocortisone, ketoprofen and arlatone
- reduction in the three markers (IL-6, IL-8, and TNFa), rank ordering of efficacy in words (FIG. 15) [3, 7]: less robust

Compound: CC(C(=O)O)c1cccc(C(=O)c2ccccc2)c1 (centres unmarked) [ketoprofen]
- CALML5 expression, in words [3, 7]: slightly inhibiting expression
- FLG expression, in words [3, 7]: slightly inhibited expression
- rank ordering of inflammation inhibitors based on IL-8 and IL-6 inhibition levels [3, 7]: followed by betamethasone, hydrocortisone, ketoprofen and arlatone
- reduction in the three markers (IL-6, IL-8, and TNFa), rank ordering of efficacy in words (FIG. 15) [3, 7]: less robust

Compound: S=[Se]=S [selenium sulfide]
- IL-8 secretion, in words ([1]; selenium sulfide 0.04-25 μM (0.04, 0.2, 1, 5, 25 μM), endogenous inflammation, dose response): decreased secretion levels of IL-8

Compound: IL-1β: pro-inflammatory cytokine used as inducer of inflammation
- TNF-α expression (amount of biomarker present in the media) ([5]; increase from about 65 pg/ml): about 120 pg/ml
- IL-6 expression (amount of biomarker present in the media) ([5]; increase from an average of about 8.2 ng/ml): ≤ 12.3 ng/mL
- induction of inflammation in ex vivo skin samples, in words [6]: shown to induce inflammation in ex vivo skin samples
- fold-change in IL-8 expression ([6]; 100 pg/ml IL-1β, after 1 day): 3.28 fold
- fold-change in TNF-α expression ([6]; 100 pg/ml IL-1β, after 1 day): −1.21 fold
- fold-change in IL-8 expression ([6]; 100 pg/ml IL-1β, after 2 days): 2.58 fold
- fold-change in TNF-α expression ([6]; 100 pg/ml IL-1β, after 2 days): 1.34 fold
- fold-change in IL-8 expression ([6]; 100 pg/ml IL-1β, after 3 days): 7.88 fold
- fold-change in TNF-α expression ([6]; 100 pg/ml IL-1β, after 3 days): 1.37 fold
- fold-change in IL-8 expression ([6]; 100 pg/ml IL-1β, after 4 days): 5.47 fold
- fold-change in TNF-α expression ([6]; 100 pg/ml IL-1β, after 4 days): 2.67 fold
- fold-change in IL-8 expression ([6]; 100 pg/ml IL-1β, after 6 days): 2.42 fold
- fold-change in TNF-α expression ([6]; 100 pg/ml IL-1β, after 6 days): −1.29 fold
- fold-change in IL-8 expression ([6]; 100 pg/ml IL-1β, after 10 days): 9.02 fold
- fold-change in TNF-α expression ([6]; 100 pg/ml IL-1β, after 10 days): 1.19 fold
- HMGCR expression relative to untreated controls, at termination ([6]; 100 pg/ml IL-1β, end of 10-day experiment): about 0.8 fold
- ceramide synthase 3, increase in expression ([6]; IL-1β, both 10 pg/ml and 100 pg/ml, day 10): ~1.5 fold

Compound: IL-17: pro-inflammatory cytokine used as inducer of inflammation
- induction of inflammation in ex vivo skin samples, in words [6]: shown to induce inflammation in ex vivo skin samples

Compound: zinc pyrithione [ZPT]
- inhibition of endogenous inflammation, conclusion in words [1]: did not significantly inhibit endogenous inflammation
- IL-8 expression (secretion) ([1]; topical 0.4 μg/cm^2 zinc pyrithione, without inhibitor about 1,200 pg/ml): about 2,000 pg/ml
- IL-8 expression (secretion) ([2]; 0.4 μg/cm^2 topical ZPT): about 2,300 pg/ml
- inhibition of IL-17/IL-22 induced inflammation, conclusion in words [2]: did inhibit IL-17. IL-22 induced inflammation

Reference: patent US9804152B1, “Human ex vivo skin model and its use in methods of identifying modulators of skin inflammation” (The Procter & Gamble Company, priority 2012, dated 2017)
